Patent US10548905B2, “Amorphous onapristone compositions and methods of making the same” (CONTEXT BIOPHARMA INC., priority 2015, dated 2020)

Legend:
[1] = Physical form by X-ray powder diffraction (XRPD); format: physicochemical; details: no sharp scattering peaks attributable to crystalline onapristone
Text: In one aspect, amorphous onapristone is formed by adding onapristone to water, dissolving the onapristone in the water by adding one equivalent of an acid solution, and subsequently increasing the pH of the solution by the addition of one equivalent of base. At the end of this process, an amorphous precipitate is formed which may be isolated and characterized. […] The presence of a crystalline substance is indicated by the presence of sharp peaks (i.e., those whose width at half-height is in the range of 0.3 to 0.5 degrees 2θ) in an XRPD pattern, while the XRPD pattern of an amorphous substance is characterized by the presence of broad scattering peaks (i.e., those whose width at half-height is in the range of at least 8 to 12 degrees 2θ).
The physical form of onapristone, either as the bulk drug substance or in its compositions, was established using X-ray powder diffraction (XRPD). XRPD patterns were obtained using a Rigaku MiniFlex powder diffraction system, equipped with a horizontal goniometer operating in the θ/2θ mode. The X-ray source was nickel-filtered Kα emission of copper (1.54184 Å). Samples were packed into the sample holder using a back-fill procedure, and were scanned over the range of 3.5 to 40 degrees 2θ at a scan rate of 0.5 degrees 2θ/min. Using a data acquisition rate of 1 point per second, these scanning parameters equate to a step size of 0.0084 degrees 2θ. […]

[2] = Physical stability of amorphous form on storage under ambient conditions, followed by XRPD; format: physicochemical
Text: The physical form of onapristone, either as the bulk drug substance or in its compositions, was established using X-ray powder diffraction (XRPD). XRPD patterns were obtained using a Rigaku MiniFlex powder diffraction system, equipped with a horizontal goniometer operating in the θ/2θ mode. The X-ray source was nickel-filtered Kα emission of copper (1.54184 Å). Samples were packed into the sample holder using a back-fill procedure, and were scanned over the range of 3.5 to 40 degrees 2θ at a scan rate of 0.5 degrees 2θ/min. Using a data acquisition rate of 1 point per second, these scanning parameters equate to a step size of 0.0084 degrees 2θ. Calibration of the diffractometer system was effected using purified talc as a reference material. The intensity scale for all diffraction patterns was normalized so that the relative intensity of the most intense peak in the pattern equaled 100%.
After the initial characterization, the substance was placed in a glass vial, and stored under ambient conditions (temperature of 22-24° C.). The product was subsequently obtained after storage under ambient conditions for 25 weeks, 43 weeks, and 16.5 months.
XRPD patterns of these samples were obtained when initially received and after 12 weeks, 20 weeks, 36 weeks, and 15 months had elapsed. The XRPD patterns obtained for sample SSF-PDS-027-001A are collected in FIG. 2, while the XRPD patterns obtained for sample SSF-PDS-027-001B are collected in FIG. 3.

physical form of onapristone by XRPD as initially prepared [1]	storage period over which the drug substance remained amorphous ([2]; stored under ambient conditions (22-24° C.))	storage period over which the drug substance remained amorphous ([2]; stored under ambient conditions (22-24° C.), listed as pH-cycled product)	storage period over which the drug substance remained amorphous ([2]; stored under ambient conditions)	SMILES
amorphous	≥ 16.5 months	at least 16.5 months		CN(C)c1ccc([C@H]2C[C@]3(C)[C@@H](CC[C@]3(O)CCCO)[C@@H]3CCC4=CC(=O)CCC4=C32)cc1 [pH-cycled onapristone]
			at least 29 weeks	CN(C)c1ccc([C@H]2C[C@]3(C)[C@@H](CC[C@]3(O)CCCO)[C@@H]3CCC4=CC(=O)CCC4=C32)cc1 [solvation-desolvation product]
